The values below come from PubChem BioAssay (NCI).

Molecules are shown by their SMILES.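 Values below derive from 48-hour exposures of cells grown in 96-well plates, with endpoints linearly interpolated between the two concentrations bracketing the appropriate inhibition level. GI50 marks 50% less growth. TGI denotes the concentration required for complete inhibition of growth.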

In one test the test system is K-562 leukemia. Briefly: NCI tumour cell line growth inhibition, 48 h.
The compound `NC1(CCCCCCCCCCC(=O)O)CNCCNCCNCCNC1` displayed a TGI greater than 100 µM.

`C1CN2N3CCCC23C1` (centres undefined) returned a TGI greater than 100 µM.

Regarding `CC[n+]1ccc2c(c1)C(=O)c1nccc3c1c-2nc1ccccc13`, the GI50 is 3 µM and the TGI was determined as 22.2 µM.

For the compound `NNC(=O)c1cnn(-c2ccnc3c(C(F)(F)F)cccc23)c1N`, the GI50 was greater than 100 µM and the TGI was greater than 100 µM.

`CC(=O)OCCc1cccnc1/C=N/O` returned a TGI greater than 100 µM.

With `Cc1c(Cl)cccc1Nc1ncccc1C(=O)O`, the GI50 was 62.7 µM and the TGI was greater than 100 µM.

`CCC1CCC2CCCC(C)N12` (centres undefined) registered a TGI greater than 100 µM.

As to `CN(C)c1ccc(/C=C2\C[N+](C)(C)C/C(=C\c3ccc(N(C)C)cc3)C2=O)cc1`, the TGI was 31.3 µM.

Turning to `O=C1CC[C@H]2CNC(=O)C[C@H]2C1`, the TGI is greater than 100 µM.

Regarding `C#CC(C)(C)Oc1cc(O)c2c(=O)c3ccccc3n(C)c2c1`, the TGI was greater than 100 µM.

Regarding `COc1cc2c(NCCCCCCO[N+](=O)[O-])ncnc2c(OC)c1OC`, the TGI was greater than 100 µM.

The compound `CN1CCCNCCN(CCc2ccccn2)CCCN(C)CC1` returned a TGI greater than 66.1 µM.

`N#Cc1cnn2ccn(C3OC(COC(=O)c4ccccc4)C(OC(=O)c4ccccc4)C3OC(=O)c3ccccc3)c12` (centres undefined) yielded a TGI greater than 21.5 µM.

In turn, `C[C@]12CCC(=O)C=C1CC[C@@H]1C2CC[C@]2(C)NC(=O)C(C#N)CC12` (some centres undefined) returned a TGI greater than 100 µM.

`CN(C)c1ccc2c(c1)oc(=O)c1ccccc12`: the TGI was 26.9 µM.

The compound `COC(=O)C(CC(=O)c1cc2c(cc1I)OCO2)Cc1cc(OC)c(OC)c(OC)c1I` (centres undefined) gave a TGI greater than 100 µM.

`O=C(Nc1ccccc1[N+](=O)[O-])c1ccccc1` came in with a TGI greater than 100 µM.

Turning to `COc1cc2c(cc1O)[C@H](Cc1ccc(Oc3cc(C[C@H]4c5cc(OC)c(OC)cc5CCN4C)ccc3OC)cc1)NCC2`, the TGI came to 19.1 µM.

In the case of `Fc1ccc(-c2nn(-c3ccccc3)cc2-c2nc3ccccc3o2)cc1`, the GI50 was 1.25 µM and the TGI was greater than 100 µM.

`CN(C)S(=O)(=O)Nc1ccccn1`: the TGI was greater than 100 µM.

As to `CN(C)CCNC(=O)c1cccc2nc3c(Cl)cccc3nc12`, the TGI was 8.74 µM.

Take `COc1nc2c(cc1S(=O)(=O)c1ccccc1)CCc1c-2cnn1-c1ccccc1Cl`: the GI50 is 5.23 µM and the TGI was greater than 100 µM.

Another test deals with A549 NSCLC. Briefly: NCI tumour cell line growth inhibition, 48 h.
`NC1(CCCCCCCCCCC(=O)O)CNCCNCCNCCNC1` yielded a TGI greater than 100 µM.

`C1CN2N3CCCC23C1` (centres undefined) returned a TGI greater than 100 µM.

Consider `CC[n+]1ccc2c(c1)C(=O)c1nccc3c1c-2nc1ccccc13`, for which the GI50 is 0.958 µM and the TGI amounted to 13.5 µM.

Take `NNC(=O)c1cnn(-c2ccnc3c(C(F)(F)F)cccc23)c1N`: the GI50 was greater than 100 µM and the TGI is greater than 100 µM.

As to `CC(=O)OCCc1cccnc1/C=N/O`, the TGI is greater than 100 µM.

Regarding `Cc1c(Cl)cccc1Nc1ncccc1C(=O)O`, the GI50 is greater than 100 µM and the TGI is greater than 100 µM.

Compound `CCC1CCC2CCCC(C)N12` (centres undefined) yielded a TGI greater than 100 µM.

As to `CN(C)c1ccc(/C=C2\C[N+](C)(C)C/C(=C\c3ccc(N(C)C)cc3)C2=O)cc1`, the TGI was greater than 100 µM.

For `O=C1CC[C@H]2CNC(=O)C[C@H]2C1`, the TGI is greater than 100 µM.

For the compound `C#CC(C)(C)Oc1cc(O)c2c(=O)c3ccccc3n(C)c2c1`, the TGI was greater than 100 µM.

On to `COc1cc2c(NCCCCCCO[N+](=O)[O-])ncnc2c(OC)c1OC`, for which the TGI is greater than 95.7 µM.

As for `CN1CCCNCCN(CCc2ccccn2)CCCN(C)CC1`, the TGI is greater than 100 µM.

Regarding `COc1ccc(CNC(=O)COc2ccc(/C=N/Nc3nc4ccccc4s3)cc2)cc1`, the GI50 is 3.12 µM and the TGI was 87.6 µM.

The compound `N#Cc1cnn2ccn(C3OC(COC(=O)c4ccccc4)C(OC(=O)c4ccccc4)C3OC(=O)c3ccccc3)c12` (centres undefined) had a TGI greater than 21.5 µM.

With `C[C@]12CCC(=O)C=C1CC[C@@H]1C2CC[C@]2(C)NC(=O)C(C#N)CC12` (some centres undefined), the TGI was greater than 100 µM.

Compound `CN(C)c1ccc2c(c1)oc(=O)c1ccccc12` had a TGI of 34.6 µM.

For the compound `COC(=O)C(CC(=O)c1cc2c(cc1I)OCO2)Cc1cc(OC)c(OC)c(OC)c1I` (centres undefined), the TGI was greater than 100 µM.

`O=C(Nc1ccccc1[N+](=O)[O-])c1ccccc1` gave a TGI greater than 100 µM.

As to `COc1cc2c(cc1O)[C@H](Cc1ccc(Oc3cc(C[C@H]4c5cc(OC)c(OC)cc5CCN4C)ccc3OC)cc1)NCC2`, the TGI was 32.8 µM.

With `Fc1ccc(-c2nn(-c3ccccc3)cc2-c2nc3ccccc3o2)cc1`, the GI50 was 3.46 µM and the TGI amounted to 16.4 µM.

Turning to `CN(C)S(=O)(=O)Nc1ccccn1`, the TGI is greater than 100 µM.

The compound `CN(C)CCNC(=O)c1cccc2nc3c(Cl)cccc3nc12` yielded a TGI greater than 35.6 µM.

With `COc1nc2c(cc1S(=O)(=O)c1ccccc1)CCc1c-2cnn1-c1ccccc1Cl`, the GI50 was 4.97 µM and the TGI was greater than 100 µM.

The subject of another test is HCC-2998 colon. Kind of test: NCI tumour cell line growth inhibition, 48 h.
As for `NC1(CCCCCCCCCCC(=O)O)CNCCNCCNCCNC1`, the TGI came out at 46 µM.

Turning to `C1CN2N3CCCC23C1` (centres undefined), the TGI is greater than 100 µM.

Take `CC[n+]1ccc2c(c1)C(=O)c1nccc3c1c-2nc1ccccc13`: the GI50 is 1.05 µM and the TGI was determined as 4.97 µM.

With `NNC(=O)c1cnn(-c2ccnc3c(C(F)(F)F)cccc23)c1N`, the GI50 was greater than 100 µM and the TGI was greater than 100 µM.

With `CC(=O)OCCc1cccnc1/C=N/O`, the TGI was greater than 100 µM.

On to `Cc1c(Cl)cccc1Nc1ncccc1C(=O)O`, for which the GI50 is 63.3 µM and the TGI is greater than 100 µM.

The compound `CCC1CCC2CCCC(C)N12` (centres undefined) had a TGI greater than 100 µM.

For the compound `CN(C)c1ccc(/C=C2\C[N+](C)(C)C/C(=C\c3ccc(N(C)C)cc3)C2=O)cc1`, the TGI came to 22.1 µM.

The compound `O=C1CC[C@H]2CNC(=O)C[C@H]2C1` came in with a TGI greater than 100 µM.

For `C#CC(C)(C)Oc1cc(O)c2c(=O)c3ccccc3n(C)c2c1`, the TGI was greater than 100 µM.
